Data taken from ChEMBL document CHEMBL5537123, “Discovery of triazole tethered thymol/carvacrol-coumarin hybrids as new class of α-glucosidase inhibitors with potent in vivo antihyperglycemic activities” (Eur J Med Chem, 2024).
The source made the active and inactive calls. No cut-off for these calls is given here.

Tests used:
[1] = Inhibition of alpha-glucosidase (unknown origin); parameters: species or system Homo sapiens
Origanum vulgare = test: Inhibition of Origanum vulgare alpha-glucosidase at 18 microg/ml relative to control; conditions: dose 18.0 µg/ml
Alpha-glucosidase [2] = target: T1, Alpha-glucosidase (Saccharomyces cerevisiae S288c, UniProt P53341+P38158+P07265); test: Inhibition of Saccharomyces cerevisiae alpha-glucosidase using pNPG as substrate preincubated with compound for 20 mins followed by substrate addition measured after 1 hrs by absorbance based analysis; format: protein assay
Alpha-amylase = target: T2, Alpha-amylase (Sus scrofa domesticus, UniProt Q7M328); test: Inhibition of porcine pancreatic alpha-amylase using pNPG as substrate preincubated with compound for 20 mins followed by substrate addition measured after 1 hrs by absorbance based analysis
T2 sequence (Q7M328 whole entry): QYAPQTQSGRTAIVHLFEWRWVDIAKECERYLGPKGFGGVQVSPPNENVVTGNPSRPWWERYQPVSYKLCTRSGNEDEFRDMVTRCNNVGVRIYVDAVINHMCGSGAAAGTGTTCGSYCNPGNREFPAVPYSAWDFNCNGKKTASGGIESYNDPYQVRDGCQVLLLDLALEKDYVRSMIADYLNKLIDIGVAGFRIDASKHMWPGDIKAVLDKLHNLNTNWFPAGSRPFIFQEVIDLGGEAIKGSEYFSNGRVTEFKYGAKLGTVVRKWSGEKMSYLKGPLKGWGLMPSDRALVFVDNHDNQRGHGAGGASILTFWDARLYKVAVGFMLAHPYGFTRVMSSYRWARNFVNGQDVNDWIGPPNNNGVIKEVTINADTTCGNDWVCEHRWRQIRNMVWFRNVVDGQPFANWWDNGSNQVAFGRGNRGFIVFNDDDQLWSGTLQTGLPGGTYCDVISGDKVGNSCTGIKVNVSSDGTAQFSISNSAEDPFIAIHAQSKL

[3] = Selectivity index, ratio of IC50 for inhibition of porcine pancreatic alpha-amylase using pNPG as substrate to IC50 for inhibition of Saccharomyces cerevisiae alpha-glucosidase using pNPG as substrate
Rattus norvegicus [4] = test: Hypoglycemic activity in streptozotocin-induced diabetic Wistar rat model assessed as reduction in fasting blood glucose level at 20 mg/kg, po measured every 7 days for 28 days relative to control; format: functional; parameters: scale not given: the % may be the effect or the level left; conditions: time 7 day
Rattus norvegicus [5] = test: Hypoglycemic activity in streptozotocin-induced diabetic Wistar rat model assessed as decrease in blood glucose level at 5 to 20 mg/kg, po administered for 5 days and measured after 30 mins by glucometer analysis; format: functional, organism-based; conditions: dose 5-20 mg/kg, time 7230.0 min
[6] = Acute toxicity in Wistar rat assessed as lethal dose measured for 14 days; conditions: in vivo, time 14 day
[7] = Acute toxicity in Wistar rat assessed as change in salivation at 5 mg/kg, po measured for 14 days; format: organism-based; conditions: in vivo, 336 h, time 14 day
Alpha-glucosidase [8] = target: T1, Alpha-glucosidase; test: Mixed type inhibition of Saccharomyces cerevisiae alpha-glucosidase using pNPG as substrate assessed as inhibition constant preincubated for 20 mins followed by substrate addition measured after 1 hrs by Lineweaver-burk plot analysis; format: protein assay
[9] = Cytotoxicity against mouse L929 cells assessed reduction in cell viability incubated for 24 hrs by MTT assay; format: toxicity, cell-based
Rattus norvegicus [10] = test: Hypoglycemic activity in streptozotocin-induced diabetic Wistar rat model assessed as reduction in fasting blood glucose level at 10 mg/kg, po measured every 7 days for 28 days relative to control; format: functional; parameters: scale not given: the % may be the effect or the level left; conditions: time 7 day
[11] = Acute toxicity in Wistar rat assessed as change in salivation at 50 mg/kg, po measured for 14 days; format: organism-based; conditions: in vivo, 336 h, time 14 day
Rattus norvegicus [12] = test: Hypoglycemic activity in streptozotocin-induced diabetic Wistar rat model assessed as decrease in blood glucose level at 10 mg/kg, po administered for 5 days and measured after 1 hr by maltose loading test relative to control; format: functional; parameters: scale not given: the % may be the effect or the level left; conditions: time 121 hrs
[13] = Toxicity in Wistar rat assessed as effect on body weight at 20 mg/kg, po measured for 28 days; format: organism-based; conditions: in vivo, 672 h, time 28 day
[14] = Acute toxicity in Wistar rat assessed as change in salivation at 300 mg/kg, po measured for 14 days; format: organism-based; conditions: in vivo, 336 h, time 14 day
Rattus norvegicus [15] = test: Hypoglycemic activity in streptozotocin-induced diabetic Wistar rat model assessed as decrease in blood glucose level at 20 mg/kg, po administered for 5 days and measured after 1 hr by sucrose loading test relative to control; format: functional; parameters: scale not given: the % may be the effect or the level left; conditions: time 121 hrs
Rattus norvegicus [16] = test: Hypoglycemic activity in streptozotocin-induced diabetic Wistar rat model assessed as decrease in blood glucose level at 10 mg/kg, po administered for 5 days and measured after 1 hr by sucrose loading test relative to control; format: functional; parameters: scale not given: the % may be the effect or the level left; conditions: time 121 hrs
Rattus norvegicus [17] = test: Hypoglycemic activity in streptozotocin-induced diabetic Wistar rat model assessed as decrease in blood glucose level at 5 mg/kg, po administered for 5 days and measured after 1 hr by sucrose loading test relative to control; format: functional; parameters: scale not given: the % may be the effect or the level left; conditions: time 121 hrs
[18] = Acute toxicity in Wistar rat assessed as mortality rate at 300 mg/kg, po measured for 14 days; format: organism-based; conditions: in vivo, time 14 day, read-out: Activity
Rattus norvegicus [19] = test: Hypoglycemic activity in streptozotocin-induced diabetic Wistar rat model assessed as decrease in blood glucose level at 5 mg/kg, po administered for 5 days and measured after 1 hr by maltose loading test relative to control; format: functional; parameters: scale not given: the % may be the effect or the level left; conditions: time 121 hrs
Rattus norvegicus [20] = test: Hypoglycemic activity in streptozotocin-induced diabetic Wistar rat model assessed as decrease in blood glucose level at 20 mg/kg, po administered for 5 days and measured after 1 hr by maltose loading test relative to control; format: functional; parameters: scale not given: the % may be the effect or the level left; conditions: time 121 hrs

IC50 (Alpha-glucosidase [2]) [µM] | IC50 (Alpha-amylase) [µM] | SMILES | further results
 |  | O=C(Cn1cc(COc2ccc3ccc(=O)oc3c2)nn1)NCc1cccc(Br)c1 | IC50 [1]: 0.543 µM
 |  | Cc1ccc(C(C)C)cc1OS(=O)(=O)c1ccc(F)cc1 | IC50 [1]: 2.56 µM; inhibition (Origanum vulgare): 57.7%
> 100 | > 100 | Cc1ccc(C(C)C)c(OCc2cn(CCCCCOc3ccc4ccc(=O)oc4c3)nn2)c1 | 
25.36 | 77.5 | Cc1ccc(C(C)C)c(OCc2cn(CCCCOc3cc(=O)oc4ccccc34)nn2)c1 | Ratio IC50 [3]: 3.06
64.21 | > 100 | Cc1ccc(C(C)C)cc1OCc1cn(CCOc2ccc3ccc(=O)oc3c2)nn1 | 
56.41 | > 100 | Cc1ccc(C(C)C)c(OCc2cn(CCOc3ccc4ccc(=O)oc4c3)nn2)c1 | 
 |  | Cc1ccc(C(C)C)c(OS(=O)(=O)c2ccc(F)cc2)c1 | IC50 [1]: 2.3 µM; inhibition (Origanum vulgare): 57.7%
61.24 | > 100 | Cc1ccc(C(C)C)c(OCc2cn(CCOc3cc(=O)oc4ccccc34)nn2)c1 | 
26.48 | > 100 | Cc1ccc(C(C)C)cc1OCc1cn(CCCCOc2cc(=O)oc3ccccc23)nn1 | 
 |  | C[C@H]1O[C@H](O[C@H]2[C@H](O)[C@@H](O)[C@@H](O[C@H]3[C@H](O)[C@@H](O)C(O)O[C@@H]3CO)O[C@@H]2CO)[C@H](O)[C@@H](O)[C@@H]1N[C@H]1C=C(CO)[C@@H](O)[C@H](O)[C@H]1O (some centres not stated) [ACARBOSE] | Activity (Rattus norvegicus [10]): 25.86%; Activity (Rattus norvegicus [12]): 53.01%; Activity (Rattus norvegicus [16]): 56.31%
16.32 | > 100 | Cc1ccc(C(C)C)c(OCc2cn(CCCCCCOc3cc(=O)oc4ccccc34)nn2)c1 | 
68.51 | > 100 | Cc1ccc(C(C)C)cc1OCc1cn(CCCOc2cc(=O)oc3ccccc23)nn1 | 
9.23 | 69.3 | Cc1ccc(C(C)C)cc1OCc1cn(CCCCCCOc2cc(=O)oc3ccccc23)nn1 | IC50 at 24 h [9]: > 100 µM; Ratio IC50 [3]: 7.51
37.59 | > 100 | Cc1ccc(C(C)C)c(OCc2cn(CCCOc3cc(=O)oc4ccccc34)nn2)c1 | 
78.69 | > 100 | Cc1ccc(C(C)C)cc1OCc1cn(CCOc2cc(=O)oc3ccccc23)nn1 | 
> 100 | > 100 | Cc1ccc(C(C)C)cc1OCc1cn(CCCOc2ccc3ccc(=O)oc3c2)nn1 | 
> 100 | > 100 | Cc1ccc(C(C)C)cc1OCc1cn(CCCCCCOc2ccc3ccc(=O)oc3c2)nn1 | 
72.91 | > 100 | Cc1ccc(C(C)C)c(OCc2cn(CCCOc3ccc4ccc(=O)oc4c3)nn2)c1 | 
 |  | Cc1ccc(CNC(=O)Cn2cc(COc3cc(=O)oc4ccccc34)nn2)cc1 | IC50 [1]: 3.5 µM
7.53 | 57.3 | Cc1ccc(C(C)C)c(OCc2cn(CCCCCOc3cc(=O)oc4ccccc34)nn2)c1 | IC50 at 24 h [9]: > 100 µM; Ratio IC50 [3]: 7.61
> 100 | > 100 | Cc1ccc(C(C)C)c(OCc2cn(CCCCCCOc3ccc4ccc(=O)oc4c3)nn2)c1 | 
> 100 | > 100 | Cc1ccc(C(C)C)cc1OCc1cn(CCCCOc2ccc3ccc(=O)oc3c2)nn1 | 
> 100 | > 100 | Cc1ccc(C(C)C)c(OCc2cn(CCCCOc3ccc4ccc(=O)oc4c3)nn2)c1 | 
> 100 | > 100 | Cc1ccc(C(C)C)cc1OCc1cn(CCCCCOc2ccc3ccc(=O)oc3c2)nn1 | 

SMILES | IC50 (Alpha-glucosidase [2]) [µM] | IC50 (Alpha-amylase) [µM] | further results
Cc1ccc(C(C)C)cc1OCc1cn(CCCCCOc2cc(=O)oc3ccccc23)nn1 | 4.32 | 37.4 | Activity (Rattus norvegicus [4]): 62.23%; Activity (Rattus norvegicus [5]): Active; LD50 at 336 h [6]: 300 mg/kg; Activity [7]: Non-Toxic; Ki (Alpha-glucosidase [8]): 0.832 µM; IC50 at 24 h [9]: > 100 µM; Ratio IC50 [3]: 8.65; Activity (Rattus norvegicus [10]): 54.69%; Activity [11]: Non-Toxic; Activity (Rattus norvegicus [12]): 62.65%; Activity [13]: Non-Toxic; Activity [14]: Non-Toxic; Activity (Rattus norvegicus [15]): 60.23%; Activity (Rattus norvegicus [16]): 59.65%; Activity (Rattus norvegicus [17]): 25.24%; mortality at 336 h [18]: 67%; Activity (Rattus norvegicus [19]): 28.91%; Activity (Rattus norvegicus [20]): 70.12%
